Data as given in patent publication US6090605A, “Purified porcine kidney L-fucose kinase” (The Board of Trustees of the University of Arkansas, priority 1998, dated 2000).
“Also recorded” adds a separate entry of the source. Blank lines part the entries; values can stand above or below the compound they belong to.

What was measured:
[1] = biological target: T1, pig kidney fucokinase (110 kDa band) (Sus scrofa, UniProt I3LTC2); test: Photoaffinity labeling of the fucokinase with 8-azido-ATP[32P]; type: binding; settings: incubation with probe, exposure to UV light
T1 construct: L-Fucokinase was purified to apparent homogeneity from the cytosolic fraction of pig kidney; from tissue; host or cells: pig kidney, cytosolic fraction
T1 sequence (I3LTC2 1-1083): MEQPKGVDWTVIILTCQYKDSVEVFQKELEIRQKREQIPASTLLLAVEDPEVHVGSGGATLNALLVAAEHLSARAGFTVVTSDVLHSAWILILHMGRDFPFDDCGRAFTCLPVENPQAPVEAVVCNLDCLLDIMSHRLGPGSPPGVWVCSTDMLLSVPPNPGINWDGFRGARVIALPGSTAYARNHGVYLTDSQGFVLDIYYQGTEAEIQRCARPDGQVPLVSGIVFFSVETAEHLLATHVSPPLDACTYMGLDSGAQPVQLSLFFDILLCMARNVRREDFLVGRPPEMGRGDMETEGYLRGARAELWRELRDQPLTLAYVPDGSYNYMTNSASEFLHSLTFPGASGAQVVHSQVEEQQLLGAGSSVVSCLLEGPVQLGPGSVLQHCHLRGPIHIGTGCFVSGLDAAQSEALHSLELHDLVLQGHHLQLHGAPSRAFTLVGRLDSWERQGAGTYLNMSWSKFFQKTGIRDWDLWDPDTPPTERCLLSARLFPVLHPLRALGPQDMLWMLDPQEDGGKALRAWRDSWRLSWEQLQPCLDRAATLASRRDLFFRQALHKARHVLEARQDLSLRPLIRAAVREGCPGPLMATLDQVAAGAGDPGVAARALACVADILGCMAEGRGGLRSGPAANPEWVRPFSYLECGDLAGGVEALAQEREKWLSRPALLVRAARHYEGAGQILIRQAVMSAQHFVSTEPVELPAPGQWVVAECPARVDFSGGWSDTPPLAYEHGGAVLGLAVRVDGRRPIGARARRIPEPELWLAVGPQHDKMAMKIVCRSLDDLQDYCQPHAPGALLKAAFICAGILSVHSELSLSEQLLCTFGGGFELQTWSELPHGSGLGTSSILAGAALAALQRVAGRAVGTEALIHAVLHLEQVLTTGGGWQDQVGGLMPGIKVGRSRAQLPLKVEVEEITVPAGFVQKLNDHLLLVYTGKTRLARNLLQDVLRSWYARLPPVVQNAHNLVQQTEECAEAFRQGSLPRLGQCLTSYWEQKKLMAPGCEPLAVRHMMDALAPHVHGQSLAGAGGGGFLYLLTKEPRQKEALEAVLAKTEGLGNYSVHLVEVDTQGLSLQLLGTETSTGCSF
Experimental: The purified enzyme was incubated for 20 seconds with azido-ATP[^32 P], and the mixture was exposed to UV for 90 seconds. The reaction was stopped by adding loading buffer and the mixture subjected to SDS-PAGE. Radioactive bands were detected by exposure to film. Lanes are as follows: Lane 1, Probe+enzyme, but no UV; Lane 2, Probe+enzyme+UV; Lanes 3 through 6. Probe+enzyme+0.3, 0.6, 0.9, and 1.2 mM ATP+exposure to UV light; lanes 7 and 8, 0.6 and 1.2 mM GTP+probe+exposure to UV light: lanes 9 and 10, 0.6 and 1.2 mM ITP+probe+exposure to UV light. In lanes 11 and 12, the enzyme was incubated with N3 -GTP[^32 P ] and then exposed to UV light (lane 12) or not exposed to UV light (lane 11). Lane 13 is a control of enzyme+N3 -ATP[^32 P]+exposure to UV light.
Enzyme, at various stages of purity, was mixed with 8-azido-ATP[^32 P] in buffer, and allowed to incubate for 20 sec. in an ice bath. 8-Azido-ATP[^32 P] was prepared as previously described (16). After incubation, the reaction mixture was exposed to short wave UV light for about 90 sec. to activate the azido group, and the protein was subjected to SDS gel electrophoresis to separate the proteins. The gels were dried and exposed to film to locate the radioactive bands and were also stained with Coomassie blue to locate the various proteins. The specificity of the labeling was determined by examining the effect of various concentrations of unlabeled ATP or other nucleotides on the labeling of the protein by N3 -ATP[^32 P]. Various controls were also run, such as one in which exposure to UV was omitted.
Lanes 11-13 of FIG. 3 show the results of another experiment designed to determine whether 8-N3 -GTP[^32 P] could label the fucokinase. […] These experiments indicate that the fucokinase is quite specific for ATP.

[2] = biological target: T2, pig kidney fucokinase (Sus scrofa, UniProt I3LTC2); test: Inhibition of [3H]L-fucose phosphorylation by unlabeled monosaccharides; type: biochemical; settings: for Relative Activity (%): unlabeled monosaccharide 500 μM, radiolabeled L-fucose substrate 100 μM; for inhibition of phosphorylation of [3H]L-fucose (in words): unlabeled sugar 500 μM
T2 construct: L-Fucokinase was purified to apparent homogeneity from the cytosolic fraction of pig kidney; from tissue; host or cells: pig kidney, cytosolic fraction
T2 sequence (I3LTC2 1-1083): T1 sequence (I3LTC2 1-1083)
Experimental: (§1) Fucokinase activity was assayed by measuring the production of L-fucose-1-Pfrom [^3 H]L-fucose and ATP. The incubation mixtures contained the following components (final concentrations) in a total volume of 150 μl: L-fucose, 0.1 mM; ATP, 5 mM; MgSO4, 5 mM; Tris-HCl buffer, pH 8.0, 65 mM; and various amounts of enzyme at the different stages of purification. Incubations were at 37° C. for 10 minutes, and reactions were terminated by heating the reaction mixtures in a boiling water bath for 1 minute. The incubation mixtures were then applied to a column of DE-52 contained in a Pasteur pipette, and the column was washed with at least 5 column volumes of 10 mM (NH4)HCO3 to remove the unbound material. The [^3 H]fucose-1-P was then eluted with 500 mM (NH4)HCO3. Aliquots of the eluates were assayed for their radioactive content by subjecting a portion to scintillation counting.
Although it was possible to get a reasonable assessment of the sugar specificity of the kinase from the above experiment, it was not possible to test sugars such as D-fucose, since these sugars are not available in radioactive form. Thus, these unlabeled sugars were tested for their ability to inhibit the phosphorylation of [^3 H]L-fucose. The rationale for this experiment is that a sugar that inhibits the phosphorylation of L-fucose would probably compete with L-fucose for the phosphorylation (i.e., active) site.

[3] = biological target: T2, pig kidney fucokinase; test: Specificity of fucokinase for phosphate donor (nucleotides); type: biochemical; settings: for activity as phosphate donor (in words): nucleotide added at 1 mM; for Specific Activity: nucleotide added at 1 mM as phosphate donor
Experimental: as §1
The specificity of the nucleoside triphosphate was also examined by testing the ability of a variety of nucleotides to serve as phosphate donors in the phosphorylation of [^3 H]L-fucose. […] In addition, no activity is observed with any nucleoside diphosphates or monophosphates.

[4] = tested on: pig liver L-fucokinase preparation; settings: cited from earlier work
[5] = biological target: T2, pig kidney fucokinase; test: Effect of metal ions on fucokinase activity; type: biochemical; settings: for effect on activity when added to incubations containing Mg++ (in words): metal ion at 1 mM
Experimental: Increasing concentrations of the metal ions shown were added to incubations of the purified enzyme with ^3 H-fucose and ATP, and the formation of fucose-1-P was measured as described below. Metal ions tested were as follows: Mg^++, filled circles; Fe^++, filled diamonds; Co^++, filled triangles; Mn^++, filled squares.
as §1
Co^++ and Mn^++ were also stimulatory with maximum activity occurring at about 3 to 5 mM, but the maximum activity was only about 25% to 33% of that observed with Mg^++.

[6] = biological target: T2, pig kidney fucokinase; test: Sugar specificity of purified fucokinase (radiolabeled sugars as phosphate acceptors); type: biochemical; settings: for Specific Activity: radiolabeled sugar 100 μM as phosphate acceptor
Experimental: as §1
The specificity of the kinase for various sugar substrates was examined in two different ways. In the first set of experiments, various radiolabeled sugars were tested as phosphate acceptors for the purified enzyme using the ion-exchange chromatography method for assay of activity. […] D-Arabinose, which has the same configuration at carbons 1 through 4 as L-fucose, was also a reasonable substrate for phosphorylation, and was about 10% as effective as L-fucose. On the other hand, all of the other sugars were ineffective as phosphate acceptors.

Compound: Nc1ncnc2c1ncn2[C@@H]1O[C@H](COP(=O)(O)O)[C@@H](O)[C@H]1O [AMP]
- activity as phosphate donor (in words) [3]: Inactive

Compound: Nc1ccn([C@@H]2O[C@H](COP(=O)(O)OP(=O)(O)O)[C@@H](O)[C@H]2O)c(=O)n1 [CDP]
- activity as phosphate donor (in words) [3]: Inactive

Compound: [Cu+2] [Cu^++]
- stimulation of enzyme activity by metal ion (in words) [5]: inactive
- effect on activity when added to incubations containing Mg++ (in words) [5]: completely inhibited activity

Compound: C[C@@H](O)[C@H](O)[C@H](O)[C@@H](O)C=O [D-fucose]
- Relative Activity (%) [2]: 102%
- inhibition of phosphorylation of [3H]L-fucose (in words) [2]: ineffective as inhibitors

Compound: [Fe+3] [Fe^+++]
- stimulation of enzyme activity by metal ion (in words) [5]: inactive

Compound: [Fe+2] [Fe^++]
- metal ion concentration at optimum (maximum) activity [5]: about 10 mM
- stimulation of enzyme activity by metal ion (in words) [5]: nearly the same degree as Mg^++

Compound: [Hg+2] [Hg^++]
- stimulation of enzyme activity by metal ion (in words) [5]: inactive
- effect on activity when added to incubations containing Mg++ (in words) [5]: completely inhibited activity

Compound: C[C@H](O)[C@@H](O)[C@@H](O)[C@H](O)C=O [L-fucose]
- Relative Activity (%) [2]: 23%
- inhibition of phosphorylation of [3H]L-fucose (in words) [2]: reasonable inhibitor
- activity as phosphate acceptor (in words) ([6]; purified enzyme): by far the best substrate; also recorded: active as phosphate acceptors
- Specific Activity [6]: 11.8 nmole/mg protein

Compound: C[C@H](O)[C@H](O)[C@@H](O)[C@@H](O)C=O [L-rhamnose]
- phosphorylation of sugar by the about 70-fold purified preparation (in words) [4]: considerable activity for phosphorylating
- inhibition of phosphorylation of [3H]L-fucose (in words) [2]: ineffective as inhibitors

Compound: [Ni+2] [Ni^++]
- stimulation of enzyme activity by metal ion (in words) [5]: inactive

Compound: O=c1ccn([C@@H]2O[C@H](COP(=O)(O)OP(=O)(O)O)[C@@H](O)[C@H]2O)c(=O)[nH]1 [UDP]
- activity as phosphate donor (in words) [3]: Inactive

Compound: O=c1ccn([C@@H]2O[C@H](COP(=O)(O)OP(=O)(O)OP(=O)(O)O)[C@@H](O)[C@H]2O)c(=O)[nH]1 [UTP]
- use as phosphate donor (in words) [4]: could also use
- Specific Activity [3]: 0.04 nmoles/mg protein/10 min

Now from value to compound, other results behind:

- labeling of the 110 kDa protein by photoprobe (in words) [1]: did not give rise to labeled protein
Compound: 8-N3 -GTP[^32 P]

- Relative Activity (%) [2]: 92%
- inhibition of phosphorylation of [3H]L-fucose (in words) [2]: ineffective as inhibitors
Compound: O=CC[C@@H](O)[C@H](O)[C@H](O)CO [2-deoxy-D-glucose]

- activity as phosphate donor (in words) [3]: Inactive
Compound: Nc1ncnc2c1ncn2[C@@H]1O[C@H](COP(=O)(O)OP(=O)(O)O)[C@@H](O)[C@H]1O [ADP]

- activity as phosphate donor (in words) [3]: Inactive
Compound: Nc1ccn([C@@H]2O[C@H](COP(=O)(O)O)[C@@H](O)[C@H]2O)c(=O)n1 [CMP]

- Specific Activity [3]: 0.05 nmoles/mg protein/10 min
Compound: Nc1ccn([C@@H]2O[C@H](COP(=O)(O)OP(=O)(O)OP(=O)(O)O)[C@@H](O)[C@H]2O)c(=O)n1 [CTP]
- use as phosphate donor (in words) [4]: could also use

- stimulation of enzyme activity by metal ion (in words) [5]: inactive
Compound: [Ca+2] [Ca^++]

- Relative Activity (%) [2]: 80%
- activity as phosphate acceptor (in words) ([6]; purified enzyme): active as phosphate acceptors
- rate of phosphorylation relative to L-fucose ([6]; purified enzyme, sugar as phosphate acceptor): about 10%
- Specific Activity [6]: 1.1 nmole/mg protein
Compound: O=C[C@@H](O)[C@H](O)[C@H](O)CO [D-arabinose]
- inhibition of phosphorylation of [3H]L-fucose (in words) [2]: inhibited although considerably less so than the L-fucose

- Relative Activity (%) [2]: 102%
Compound: C[C@@H](O)[C@@H](O)[C@H](O)[C@H](O)C=O [D-rhamnose]

- Relative Activity (%) [2]: 96%
- Specific Activity [6]: 0 nmole/mg protein
Compound: O=C[C@H](O)[C@H](O)[C@H](O)CO [D-ribose]
- phosphorylation of sugar by the about 70-fold purified preparation (in words) [4]: considerable activity for phosphorylating

- Relative Activity (%) [2]: 103%
- Specific Activity [6]: 0 nmole/mg protein
Compound: O=C[C@H](O)[C@@H](O)[C@H](O)CO [D-xylose]

- activity as phosphate donor (in words) [3]: Inactive
Compound: Nc1nc2c(ncn2[C@@H]2O[C@H](COP(=O)(O)OP(=O)(O)O)[C@@H](O)[C@H]2O)c(=O)[nH]1 [GDP]

- activity as phosphate donor (in words) [3]: Inactive
Compound: Nc1nc2c(ncn2[C@@H]2O[C@H](COP(=O)(O)O)[C@@H](O)[C@H]2O)c(=O)[nH]1 [GMP]

- stimulation of enzyme activity by metal ion (in words) [5]: gave the best stimulation
Compound: [Mg+2] [Mg^++]

- stimulation of enzyme activity by metal ion (in words) [5]: inactive
Compound: [Mo+2] [Mo^++]

- activity as phosphate donor (in words) [3]: Inactive
Compound: O=c1ccn([C@@H]2O[C@H](COP(=O)(O)O)[C@@H](O)[C@H]2O)c(=O)[nH]1 [UMP]

- stimulation of enzyme activity by metal ion (in words) [5]: inactive
- effect on activity when added to incubations containing Mg++ (in words) [5]: completely inhibited activity
Compound: [Zn+2] [Zn^++]
